Where two headings read alike, the source gives them in different places.
Columns and labels:
[1] = system: panel of 60 human cancer cell lines; test: NCI DTP in vitro anticancer screen, panel of 60 human cancer cell lines; format: cell-based; settings: average over human tumour cell lines of the NCI panel (FIG. 1); read-out: average GI50 (growth inhibition by 50%)
Description: For example, the following methodology, which is currently employed by the NCI, can be used to assess the GI50 of a candidate compound of Formula I in the selected cancer cell lines. Briefly, cell suspensions are diluted (5000-40,000 cells per well) and 100 μL of the diluted cell suspension is added into 96-well microtiter plates. Inoculates are allowed a preincubation period of 24 h at 37° C. for stabilization. Dilutions at twice the intended test concentration of the candidate compound are added at time zero in 100 μL aliquots to the microtiter plate wells. Test compounds are generally evaluated at five 10-fold dilutions. In routine testing, the highest well concentration is usually 10E-4 M, but this may be adjusted depending on the compound being tested. The cells are incubated with the test compound for 48 h in 5% CO2 atmosphere and 100% humidity. The cells are then assayed by using the sulforhodamine B assay (see, for example, Skehan, P., et al. (1990) JNCI, J. Natl. Cancer Inst. 82, 1107-1112; and Chen, S. F., et al. (1990) Proc. Am. Assoc. Cancer Res. 31, A2644) employing a plate reader which can be used to read the optical densities.
Compounds 2 and 3 were evaluated for their antiproliferative effects in a panel of 60 human cancer cell lines as part of the in vitro anticancer screening services provided by the DTP (Developmental Therapeutics Program) of the US National Cancer Institute (NCI).
Analysis of the effects of compounds of Formula I on in vitro and in vivo cell growth inhibition were performed utilizing the methods as described in the preceding Examples. As shown in Example 12, cell growth inhibition by the parental compound 3 was screened by National Cancer Institute 60-cell line assay and leukemia, non-small cell cancer, colon cancer, renal cancer and prostate cancer panels were especially sensitive to compound 3.

[2] = system: human colon carcinoma HT-29 cells; test: XTT cell proliferation assay, HT-29; format: cell-based; settings: Homo sapiens, HT-29, XTT, read-out: IC50
In short: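 HT-29 cells in McCoy's 5A with 10% FBS, 37° C., 5% CO2, exposed to varying compound concentrations for 6-7 days. Viable cells quantified by XTT reduction to formazan; growth inhibition expressed as IC50 (μM).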

Solubility in water = format: physicochemical; settings: HCl salt of compound 2
Description: A solution of 0.200 g of compound 2 (0.483 mmol) in DMF was treated with HCL(g) until no more precipitation was observed. The solid was then filtered, washed with dichloromethane and hexanes, dried in vacuum.

## Brc1ccc2[nH]cc(-c3nc4c5cccnc5c5ncccc5c4[nH]3)c2c1 [Compound 2]
[1]
  GI50: < 2000 nM
[2]; 6-7 days, Table 3
  IC50: 700 nM
[2]; as Example 13, Table 7
  IC50: 1.5 µg/mL
Solubility in water
  solubility in water: soluble in water

— patent US8148392B2, “2-indolyl imidazo [4,5-d] phenanthroline derivatives and their use in the treatment of cancer” (Lorus Therapeutics Inc., priority 2005, dated 2012)
